The numbers were not newly measured in patent US10537528B2 (The Regents of the University of California, priority 2015, dated 2020), which cites them from elsewhere.

Series [1] concerns obese individuals with NASH. To be noted: treated for 4-12 weeks.
Series [2] deals with intracellular cystine (circulating white blood cells).
The subject of series [3] is obese children who had steatosis. To be noted: 400-1000 IU/day for 4-10 months.

Consider `CC(=O)N[C@@H](CS)C(=O)O` [N-acetylcysteine], for which, in series [1], the “aminotransferase levels and gamma-GT” value is reported as “improvement”; the “subject body mass index” value is “no reported change”.
Regarding `NCCS` [cysteamine], in series [2] (delivery into the small intestine (WO 2007/089670)), the “time to observed decrease in leukocyte cystine” value is “within an hour”. In addition, in series [2] (taken regularly, measured in circulating white blood cells), the “depletion of intracellular cystine” value is listed as “up to 90%”.
vitamin E: in series [3] (decreased from 104±61 IU/L, P<0.002), the “mean AST levels after treatment” value is recorded as 33±11 IU/L. Also, the “mean ALT levels after treatment” value in series [3] (decreased from 175±106 IU/L, P<0.01) is 40±26 IU/L.
